# Like-named read-outs stand apart in the source and are kept apart here.
# Target: T1, VAV1 (Homo sapiens, UniProt P15498+Q96SW2)
# T1 construct: A heterozygous VAV1 C-terminal HiBiT knock-in pool was generated at Monte Rosa Therapeutics from a clonal Jurkat cell; endogenous in cells; host or cells: Jurkat clone stably expressing LgBiT, homozygous GSPT1-G575N; heterozygous VAV1-HiBiT knock-in pool
# Experiment: VAV1 degradation activity, VAV1-HiBiT knock-in Jurkat luminescence assay (Example A, Table 1)
# Assay type: cell-based
# Settings: VAV1-HiBiT knock-in Jurkat cells; for Dmax: Jurkat
# Procedure, shortened: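 Luminescence was measured at 6 and 24 h after adding compound (10 μM stock) to VAV1-HiBiT knock-in Jurkat cells, which had been pre-incubated ~16 h at 37° C. in RPMI/10% FBS containing Endurazine. EC50 values came from control-normalised responses fitted to a 3-parameter logistic model with hillslope fixed at 1.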
# [1] = luminescence read at 6 and 24 hours, read-out: VAV1 Dmax %
# [2] = luminescence read at 6 and 24 hours, read-out: VAV1 Dmax %, class
# [3] = luminescence read at 6 and 24 hours, read-out: VAV1 DC50
# [4] = luminescence read at 6 and 24 hours, read-out: VAV1 DC50 (nM), class
# [5] = luminescence read at 6 and 24 hours after compound addition, read-out: VAV1 Dmax %
# [6] = luminescence read at 6 and 24 hours after compound addition, read-out: VAV1 Dmax %, class
# [7] = luminescence read at 6 and 24 hours after compound addition, read-out: VAV1 DC50
# [8] = luminescence read at 6 and 24 hours after compound addition, read-out: VAV1 DC50 (nM), class
SMILES,Dmax [1],Dmax [2],DC50 [3],DC50 [4],Dmax [5],Dmax [6],DC50 [7],DC50 [8],"VAV1 Dmax %, class (luminescence read at 6 and 24 hours)"
"CN1CCC2(CC2)N(c2ccc(-c3cccc(C4CCC(=O)NC4=O)c3Cl)cc2)C1=O (stereo not shown) [Compound 366, 3-(2-chloro-4′-(6-methyl-5-oxo-4,6-diazaspiro[2.5]octan-4-yl)-[1,1′-biphenyl]-3-yl)piperidine-2,6-dione]",97.8%,> 90%,1.87 nM,≤ 100 nM,,,,,
O=C1CCC(c2cccc(-c3ccc(CN4CCOC4=O)cc3)c2Cl)C(=O)N1 (stereo not shown) [Compound 219],81.2%,60 to 90%,105 nM,100 to 1000 nM,,,,,
"O=C1CCC(c2cccc(-c3ccc(N4C(=O)CCC45CC5)cc3)c2Cl)C(=O)N1 (stereo not shown) [Compound 414, 3-(2-chloro-4′-(5-oxo-4-azaspiro[2.4]heptan-4-yl)-[1,1′-biphenyl]-3-yl)piperidine-2,6-dione]",97.7%,> 90%,5.85 nM,≤ 100 nM,,,,,
"O=C1CCC(c2cccc(-c3ccc(Cn4ccccc4=O)nc3)c2Cl)C(=O)N1 (stereo not shown) [Compound 447, 3-(2-chloro-3-(6-((2-oxopyridin-1(2H)-yl)methyl)pyridin-3-yl)phenyl)piperidine-2,6-dione]",61.9%,60 to 90%,741 nM,100 to 1000 nM,,,,,
"O=C1CCC(c2cccc(-c3ccc(-n4cc(C(F)(F)F)ccc4=O)cc3)c2Cl)C(=O)N1 (stereo not shown) [Compound 237, 3-(2-chloro-4′-(2-oxo-5-(trifluoromethyl)pyridin-1(2H)-yl)-[1,1′-biphenyl]-3-yl)piperidine-2,6-dione]",92.7%,> 90%,35.8 nM,≤ 100 nM,,,,,
"O=C1CCC(c2cccc(-c3ccc4c(c3)CC(=O)N4)c2Cl)C(=O)N1 (stereo not shown) [Compound 493, 3-(2-chloro-3-(2-oxoindolin-5-yl)phenyl)piperidine-2,6-dione]",,,,,75.7%,60 to 90%,502 nM,100 to 1000 nM,
"Cn1cnc(Cn2c(=O)oc3cc(-c4cccc(C5CCC(=O)NC5=O)c4Cl)ccc32)c1 (stereo not shown) [Compound 392, 3-(2-chloro-3-(3-((1-methyl-1H-imidazol-4-yl)methyl)-2-oxo-2,3-dihydrobenzo[d]oxazol-6-yl)phenyl)piperidine-2,6-dione]",94.8%,> 90%,12.8 nM,≤ 100 nM,,,,,
O=C1CCC(c2cccc(-c3ccc(CN4CCC(F)C4=O)cc3)c2Cl)C(=O)N1 (stereo not shown) [Compound 289],86.7%,60 to 90%,43.3 nM,≤ 100 nM,,,,,
CC1(C)CN(c2cccc(-c3ccc(CC4CCC(=O)NC4=O)cc3Cl)c2)C(=O)CO1 (stereo not shown) [Compound 268],94.5%,,12.8 nM,≤ 100 nM,,,,,A (A represents a Dmax % >90%)
"CN1Cc2cccc(-c3ccc(-c4cccc(C5CCC(=O)NC5=O)c4Cl)cc3)c2S1(=O)=O (stereo not shown) [Compound 406, 3-(2-chloro-4′-(2-methyl-1,1-dioxido-2,3-dihydrobenzo[d]isothiazol-7-yl)-[1,1′-biphenyl]-3-yl)piperidine-2,6-dione]",82.4%,60 to 90%,25.9 nM,≤ 100 nM,,,,,
O=C1CCC(c2cccc(-c3cccc(CC4CCC(F)C(=O)N4)c3)c2Cl)C(=O)N1 (stereo not shown) [Compound 270],89.6%,60 to 90%,31.3 nM,≤ 100 nM,,,,,
"Cn1ccc(-c2ccc(-c3cccc(C4CCC(=O)NC4=O)c3Cl)cc2)n1 (stereo not shown) [Compound 164, 3-(2-chloro-4′-(1-methyl-1H-pyrazol-3-yl)-[1,1′-biphenyl]-3-yl)piperidine-2,6-dione]",71.9%,60 to 90%,542 nM,100 to 1000 nM,,,,,
CN1CCN(CCOc2ccc(-c3cccc(C4CCC(=O)NC4=O)c3Cl)cc2)CC1 (stereo not shown) [Compound 104],81.7%,60 to 90%,59.7 nM,≤ 100 nM,,,,,
CNc1ccc(-c2cccc(C3CCC(=O)NC3=O)c2Cl)cc1C (stereo not shown) [Compound 116],96%,> 90%,22.3 nM,≤ 100 nM,,,,,
CC1CCC(=O)N1Cc1ccc(-c2cccc(C3CCC(=O)NC3=O)c2Cl)cc1 (stereo not shown) [Compound 297],93.5%,> 90%,13.4 nM,≤ 100 nM,,,,,
"Cn1ccc(CN2C(=O)CCc3cc(-c4cccc(C5CCC(=O)NC5=O)c4Cl)ccc32)n1 (stereo not shown) [Compound 501, 3-(2-chloro-3-(1-((1-methyl-1H-pyrazol-3-yl)methyl)-2-oxo-1,2,3,4-tetrahydroquinolin-6-yl)phenyl)piperidine-2,6-dione]",,,,,97.7%,> 90%,8.19 nM,≤ 100 nM,

SMILES,Dmax [1],Dmax [2],DC50 [3],DC50 [4],Dmax [5],Dmax [6],DC50 [7],DC50 [8],"VAV1 Dmax %, class (luminescence read at 6 and 24 hours)"
"CN1CC2(CC2)N(c2ccc(-c3cccc(C4CCC(=O)NC4=O)c3Cl)cc2)C1=O (stereo not shown) [Compound 342, 3-(2-chloro-4′-(6-methyl-5-oxo-4,6-diazaspiro[2.4]heptan-4-yl)-[1,1′-biphenyl]-3-yl)piperidine-2,6-dione]",97.7%,> 90%,4.56 nM,≤ 100 nM,,,,,
"O=C1CCC(c2cccc(-c3cnc(Cc4ncco4)c(F)c3)c2Cl)C(=O)N1 (stereo not shown) [Compound 370, 3-(2-chloro-3-(5-fluoro-6-(oxazol-2-ylmethyl)pyridin-3-yl)phenyl)piperidine-2,6-dione]",58.1%,< 60%,1570 nM,> 1000 nM,,,,,
"O=C1CCC(c2cccc(-c3ccc(N4C(=O)OCC45CC5)cc3)c2Cl)C(=O)N1 (stereo not shown) [Compound 426, 3-(2-chloro-4′-(5-oxo-6-oxa-4-azaspiro[2.4]heptan-4-yl)-[1,1′-biphenyl]-3-yl)piperidine-2,6-dione]",96.5%,> 90%,8.9 nM,≤ 100 nM,,,,,
CCNc1ccc(-c2cccc(C3CCC(=O)NC3=O)c2Cl)cc1 (stereo not shown) [Compound 115],80.9%,60 to 90%,125 nM,100 to 1000 nM,,,,,
CN1CC(=O)N(c2ccc(-c3cccc(C4CCC(=O)NC4=O)c3Cl)cc2)c2cccnc21 (stereo not shown) [Compound 335],97.3%,> 90%,5.87 nM,≤ 100 nM,,,,,
O=C1CCC(c2cccc(-c3ccc(OCc4ccncc4)cc3)c2Cl)C(=O)N1 (stereo not shown) [Compound 124],98.8%,> 90%,4.04 nM,≤ 100 nM,,,,,
CC1(C)CN(c2ccc(-c3cccc(C4CCC(=O)NC4=O)c3Cl)cc2)C(=O)CO1 (stereo not shown) [Compound 311],92.7%,> 90%,21.9 nM,≤ 100 nM,,,,,
"O=C1CCC(c2cccc(-c3cnc(N4C(=O)CCC45CCC5)c(F)c3)c2Cl)C(=O)N1 (stereo not shown) [Compound 365, 3-(2-chloro-3-(5-fluoro-6-(6-oxo-5-azaspiro[3.4]octan-5-yl)pyridin-3-yl)phenyl)piperidine-2,6-dione]",88%,60 to 90%,55 nM,≤ 100 nM,,,,,
"O=C1CCC(c2cccc(-c3ccc(N4CCC(Cn5ccccc5=O)CC4)cc3)c2Cl)C(=O)N1 (stereo not shown) [Compound 166, 3-(2-chloro-4′-(4-((2-oxopyridin-1(2H)-yl)methyl)piperidin-1-yl)-[1,1′-biphenyl]-3-yl)piperidine-2,6-dione]",61.5%,60 to 90%,517 nM,100 to 1000 nM,,,,,
"CN1CCCN(c2ccc(-c3cccc(C4CCC(=O)NC4=O)c3Cl)cn2)C1=O (stereo not shown) [Compound 435, 3-(2-chloro-3-(6-(3-methyl-2-oxotetrahydropyrimidin-1(2H)-yl)pyridin-3-yl)phenyl)piperidine-2,6-dione]",70.8%,60 to 90%,330 nM,100 to 1000 nM,,,,,
"Cn1ccc(Cc2noc3cc(-c4cccc(C5CCC(=O)NC5=O)c4Cl)ccc23)n1 (stereo not shown) [Compound 510, 3-(2-chloro-3-(3-((1-methyl-1H-pyrazol-3-yl)methyl)benzo[d]isoxazol-6-yl)phenyl)piperidine-2,6-dione]",,,,,89.2%,60 to 90%,78.6 nM,≤ 100 nM,
"O=C1CCC(c2cccc(-c3ccc(CCCn4ccccc4=O)cc3)c2Cl)C(=O)N1 (stereo not shown) [Compound 178, 3-(2-chloro-4′-(3-(2-oxopyridin-1(2H)-yl)propyl)-[1,1′-biphenyl]-3-yl)piperidine-2,6-dione]",81.1%,60 to 90%,239 nM,100 to 1000 nM,,,,,
"Cn1ccc(COc2ccc(-c3cccc(C4CCC(=O)NC4=O)c3)cc2)n1 (stereo not shown) [Compound 151, 3-(4′-((1-methyl-1H-pyrazol-3-yl)methoxy)-[1,1′-biphenyl]-3-yl)piperidine-2,6-dione]",39.8%,< 60%,≥ 10000 nM,> 1000 nM,,,,,
"O=C1CCC(c2cccc(-c3ccc(N4CC5(COC5)CC4=O)cc3)c2Cl)C(=O)N1 (stereo not shown) [Compound 386, 3-(2-chloro-4′-(7-oxo-2-oxa-6-azaspiro[3.4]octan-6-yl)-[1,1′-biphenyl]-3-yl)piperidine-2,6-dione]",29.2%,< 60%,≥ 10000 nM,> 1000 nM,,,,,
O=C1CCC(c2cccc(-c3ccc(N4CC5CC5CC4=O)cc3)c2Cl)C(=O)N1 (stereo not shown) [Compound 307],96%,> 90%,9.64 nM,≤ 100 nM,,,,,

# From patent US12257247B2 (Monte Rosa Therapeutics AG, priority 2023, dated 2025)
